Columns and labels:
K-562 = experiment: NCI-60 SRB growth assay; type: cell-based, human; details: Homo sapiens
EKVX = experiment: NCI-60 SRB growth assay; type: cell-based, human
RPMI-8226 = experiment: NCI-60 SRB growth assay; type: cell-based, human; details: RPMI-8226
SK-MEL-2 = experiment: NCI-60 SRB growth assay; type: cell-based, human
HCT-15 = experiment: NCI-60 SRB growth assay; type: cell-based, human; details: HCT-15
HCT-116 = experiment: NCI-60 SRB growth assay; type: cell-based, human; details: HCT-116
MCF7 = experiment: NCI-60 SRB growth assay; type: cell-based, human
M14 = experiment: NCI-60 SRB growth assay; type: cell-based, human; details: M14
SF-539 = experiment: NCI-60 SRB growth assay; type: cell-based, human
SNB-75 = experiment: NCI-60 SRB growth assay; type: cell-based, human
LOX IMVI = experiment: NCI-60 SRB growth assay; type: cell-based, human
UO-31 = experiment: NCI-60 SRB growth assay; type: cell-based, human
NCI/ADR-RES = experiment: NCI-60 SRB growth assay; type: cell-based, human
MDA-MB-435 = experiment: NCI-60 SRB growth assay; type: cell-based, human
MALME-3M = experiment: NCI-60 SRB growth assay; type: cell-based, human
OVCAR-8 = experiment: NCI-60 SRB growth assay; type: cell-based, human; details: OVCAR-8
HL-60(TB) = experiment: cells; details: Homo sapiens
MDA-MB-231/ATCC = experiment: NCI-60 SRB growth assay; type: cell-based, human
UACC-62 = experiment: NCI-60 SRB growth assay; type: cell-based, human
A549/ATCC = experiment: NCI-60 SRB growth assay; type: cell-based, human
[1] = tested on: oligo-1: d(CGCGAATTCGCG)2; experiment: UV thermal denaturation; type: binding
MOLT-4 = experiment: NCI-60 SRB growth assay; type: cell-based, human
SK-MEL-5 = experiment: NCI-60 SRB growth assay; type: cell-based, human
Hu Topo I = target: T1, Hu Topo I (Homo sapiens, UniProt P11387); experiment: Plasmid DNA relaxation assay
T1 sequence (P11387 1-765): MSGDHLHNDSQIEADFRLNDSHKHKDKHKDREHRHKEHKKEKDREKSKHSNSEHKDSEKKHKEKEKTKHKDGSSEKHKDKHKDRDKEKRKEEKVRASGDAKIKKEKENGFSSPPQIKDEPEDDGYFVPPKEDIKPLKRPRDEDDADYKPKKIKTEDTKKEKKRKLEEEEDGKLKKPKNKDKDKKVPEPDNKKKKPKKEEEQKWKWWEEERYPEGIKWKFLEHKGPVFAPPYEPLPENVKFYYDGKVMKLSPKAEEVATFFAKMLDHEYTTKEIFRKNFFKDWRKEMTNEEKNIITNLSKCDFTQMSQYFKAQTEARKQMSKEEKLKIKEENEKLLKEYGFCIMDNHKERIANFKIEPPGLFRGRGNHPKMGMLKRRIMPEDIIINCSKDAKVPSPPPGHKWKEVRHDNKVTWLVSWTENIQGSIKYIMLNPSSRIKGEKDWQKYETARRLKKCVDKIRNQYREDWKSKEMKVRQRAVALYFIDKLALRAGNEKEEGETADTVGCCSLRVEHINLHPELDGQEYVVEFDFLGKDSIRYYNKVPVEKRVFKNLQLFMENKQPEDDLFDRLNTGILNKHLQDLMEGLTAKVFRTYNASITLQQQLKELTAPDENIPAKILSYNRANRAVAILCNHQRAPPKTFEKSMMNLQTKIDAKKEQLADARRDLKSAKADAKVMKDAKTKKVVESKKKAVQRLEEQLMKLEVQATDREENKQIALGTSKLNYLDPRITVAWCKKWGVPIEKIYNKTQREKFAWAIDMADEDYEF

DU-145 = experiment: NCI-60 SRB growth assay; type: cell-based, human

For `CCCCN1CCN(c2ccc3[nH]c(-c4ccc5[nH]c(-c6ccc(C(F)(F)F)cc6)nc5c4)nc3c2)CC1` [12b, 5-(5-(4-Butylpiperazin-1-yl)-1H-benzo[d]imidazol-2-yl)2(4(trifluoromethyl)phenyl)-1H-benzo[d]imidazole], the GI50 (K-562; K562) was 220 nM, the CC50 (K-562; K562, read-out: LC50) was greater than 100000 nM and the TGI (EKVX) was 2900 nM. The GI50 (EKVX; Homo sapiens) was 1500 nM, the CC50 (EKVX; Homo sapiens, read-out: LC50) was 5700 nM and the GI50 (RPMI-8226; Homo sapiens) was 250 nM. For the same molecule, the TGI (RPMI-8226) was 620 nM, the GI50 (SK-MEL-2; Homo sapiens, SK-MEL-2) was 1800 nM and the CC50 (SK-MEL-2; Homo sapiens, SK-MEL-2, read-out: LC50) was 6300 nM. For the same molecule, the TGI (SK-MEL-2; SK-MEL-2) was 3300 nM, the TGI (HCT-15) was 740 nM and the GI50 (HCT-15; Homo sapiens) was 270 nM. For the same molecule, the TGI (HCT-116) was 420 nM, the GI50 (HCT-116; Homo sapiens) was 200 nM and the TGI (MCF7) was 570 nM. For the same molecule, the GI50 (MCF7; Homo sapiens) was 170 nM, the GI50 (M14; Homo sapiens) was 370 nM and the TGI (M14) was 2400 nM. It also gave a GI50 (SF-539; Homo sapiens, SF-539) of 1600 nM, a CC50 (SF-539; Homo sapiens, SF-539, read-out: LC50) of 5800 nM and a TGI (SF-539; SF-539) of 3050 nM. It also gave a GI50 (SNB-75; Homo sapiens, SNB-75) of 1050 nM, a CC50 (SNB-75; Homo sapiens, SNB-75, read-out: LC50) of 4800 nM and a TGI (SNB-75; SNB-75) of 2250 nM. It also gave a TGI (LOX IMVI) of 1100 nM, a GI50 (LOX IMVI; Homo sapiens) of 380 nM and a GI50 (UO-31; Homo sapiens, UO-31) of 1770 nM. It also gave a CC50 (UO-31; Homo sapiens, UO-31, read-out: LC50) of 5900 nM, a TGI (UO-31; UO-31) of 3240 nM and a TGI (NCI/ADR-RES) of 57700 nM. For the same molecule, the GI50 (NCI/ADR-RES; Homo sapiens) was 2100 nM, the CC50 (NCI/ADR-RES; Homo sapiens, read-out: LC50) was greater than 100000 nM and the GI50 (MDA-MB-435; Homo sapiens, MDA-MB-435) was 1400 nM. The CC50 (MDA-MB-435; Homo sapiens, MDA-MB-435, read-out: LC50) was 5500 nM, the TGI (MDA-MB-435; MDA-MB-435) was 2800 nM and the GI50 (MALME-3M; Homo sapiens, Malme-3M) was 1400 nM. It also gave a TGI (MALME-3M; MALME-3M) of 3000 nM, a GI50 (OVCAR-8; Homo sapiens) of 1100 nM and a TGI (OVCAR-8) of 2800 nM. For the same molecule, the GI50 (HL-60(TB); HL-60) was 1200 nM, the CC50 (HL-60(TB); HL-60, read-out: LC50) was 6600 nM and the GI50 (MDA-MB-231/ATCC; Homo sapiens, MDA-MB-231) was 1460 nM. For the same molecule, the CC50 (MDA-MB-231/ATCC; Homo sapiens, MDA-MB-231, read-out: LC50) was 5840 nM, the TGI (MDA-MB-231/ATCC; MDA-MB-231) was 2920 nM and the GI50 (UACC-62; Homo sapiens, UACC-62) was 1500 nM. The CC50 (UACC-62; Homo sapiens, UACC-62, read-out: LC50) was 5800 nM, the TGI (UACC-62; UACC-62) was 2900 nM and the TGI (A549/ATCC; A549/ATCC) was 1190 nM. The GI50 (A549/ATCC; Homo sapiens, A549) was 350 nM, the ΔTm ([1]; r = 0.5) was 3 °C and the Tm ([1]; r = 0.5, oligo 2.5 μM) was 57.7 °C. The Tm ([1]; r = 1) was 58.7 °C, the ΔTm ([1]; r = 1) was 4 °C and the Tm ([1]; r = 1.5) was 59.7 °C. For the same molecule, the ΔTm ([1]; r = 1.5) was 5 °C, the Tm ([1]; r = 2.0) was 61.7 °C and the ΔTm ([1]; r = 2.0) was 7 °C. The GI50 (MOLT-4; Homo sapiens, MOLT-4) was 1070 nM, the CC50 (MOLT-4; Homo sapiens, MOLT-4, read-out: LC50) was 6300 nM and the TGI (MOLT-4; MOLT-4) was 2500 nM. It also gave a GI50 (SK-MEL-5; Homo sapiens, SK-MEL-5) of 1600 nM, a CC50 (SK-MEL-5; Homo sapiens, SK-MEL-5, read-out: LC50) of 6200 nM and a TGI (SK-MEL-5; SK-MEL-5) of 3200 nM. The IC50 (Hu Topo I) was 16000 nM, the TGI (DU-145; DU-145) was 1680 nM and the GI50 (DU-145; Homo sapiens, DU-145) was 450 nM. It also gave a CC50 (DU-145; Homo sapiens, DU-145, read-out: LC50) of 4300 nM.

Reference: article PMC8793051 (ACS Omega, 2022)
